Measurements published in patent US5420126A, “3,4-dihydro-2H-1,4-benzoxazine derivatives and pharmaceutical compositions containing the same” (Yamanouchi Pharmaceutical Co., Ltd., priority 1989, dated 1995).
pIC50: −log10 of the molar value.

How the values were obtained:
[1] = tested on: cardiovascular system (mean blood pressure, coronary blood flow); experiment: Effects on the cardiovascular system in anesthetized dogs (i.v.); format: in vivo, Mongrel dogs
Protocol: (§1) The compounds, when given intravenously, reduced the blood pressure and increased the coronary blood flow in the dose range of 1 to 1,000 μg/kg and, when administered into the coronary artery, they dilated the coronary artery in the dose range of 0.3 to 100 μg.
(2) Effects on the cardiovascular system
Mongrel dogs of either sex were anesthetized with pentobarbital, 30 mg/kg i.v. and, after tracheal intubation, the experiment was performed under artificial respiration. After thoracotomy, heart rate, blood pressure, left ventricular pressure, max dLVP/dt, pulmonary arterial pressure, central venous pressure, cardiac output and coronary blood flow were measured. The test compound was administered through a cannula indwelt in the femoral vein and the efficacy was evaluated.
(3) Coronary vasodilating effect

[2] = tested on: 3,4-diaminopyridine-induced rhythmic contractions of left coronary artery ring segments; experiment: Inhibition of 3,4-diaminopyridine-induced rhythmic contractions (frequency) in isolated coronary artery rings; design: species or system Mongrel dogs; conditions: Canis lupus familiaris; isolated dog coronary artery rings; 3,4-diaminopyridine 10 mM; 37° C.; read-out: IC50, inhibitory effect on the frequency of 3,4-diaminopyridine-induced rhythmic contractions
Protocol: as §1
(1) Effects on 3,4-diaminopyridine-induced rhythmic contractions
The method of Uchida and Sugimoto (Myakkangaku, 24, 133-143, 1984) was used. Mongrel dogs of either sex were anesthetized with pentobarbital (30 mg/kg i.v.) and bled to death and, then, the heart was excised from each animal. In the Krebs-Henseleit solution, the left coronary circumflex branch or the anterior descending branch was isolated and cut into rings, about 2 mm in width. The ring segment was fixed to a stainless steel hook and suspended in a Krebs-Henseleit bath (37° C.) aerated with 95%O2 -5%CO2 gas mixture under a tension load of 1.0 g, and isometric contractions were recorded.
After the specimen was stabilized for 30 minutes, rhythmic contractions were induced by addition of 3,4-diaminopyridine (10 mM). When the amplitude and frequency of rhythmic contractions became substantially steady, cumulative addition of the test compound to the organ bath was started. The concentration-response curves for the amplitude and frequency of contractions were constructed and the efficacy was evaluated.
The inhibitory effect on the frequency of contractions is shown in Column (1) in Table 1.

[3] = tested on: spontaneously hypertensive rats (SHR); experiment: Hypotensive effect, oral, in conscious spontaneously hypertensive rats (SHR); format: in vivo, Spontaneously hypertensive rats (SHR) of Okamoto-Aoki strain
Protocol: (§2) Then, in connection with Examples 1 and 2, the hypotensive effect of the test compound given orally in conscious spontaneously hypertensive rats (SHR) and the intravenous acute toxicity in mice were determined.
Spontaneously hypertensive rats (SHR) of Okamoto-Aoki strain were anesthetized with pentobarbital, 60 mg/kg i.p. Then, a cannula for blood pressure measurement was indwelt in the left common carotid artery and the other end of the cannula was led out extracorporeally from the posterior neck. After a stabilization period of 4-5 postoperative days, the blood pressure and heart rate were measured without restraint under no anesthesia. The test compound was suspended in 0.5% methylcellulose solution and the suspension was orally administered in a volume of 5 ml/kg and the efficacy was evaluated.

[4] = Acute toxic effect (LD50), intravenous; conditions: mouse, in vivo, i.v. (caudal vein), male mice, up and down method, read-out: LD50, acute toxic dose
Protocol: as §2
The acute toxic dose (LD50) of the test compound administered into the caudal vein was determined by the up and down method in male mice.

| SMILES | pIC50 [2] | MBP: mean blood pressure-lowering effect (percent reduction) ([1]; 3 μg/kg i.v.) | MBP: mean blood pressure-lowering effect ([3]; 300 μg/kg p.o.) | MBP: mean blood pressure-lowering effect (percent reduction) ([1]; 10 μg/kg i.v.) | LD50 [4] [mg/kg] | MBP: mean blood pressure-lowering effect ([3]; 30 μg/kg p.o.) |
| --- | --- | --- | --- | --- | --- | --- |
| CC1(C)CN(N2CCCC2=O)c2cc([N+](=O)[O-])ccc2O1 [41(4), 3,4-dihydro-2,2-dimethyl-4-(2-oxo-1-pyrrolidinyl)-6-nitro-2H-1,4-benzoxazine] | 7.30 | -20 Δ% |  |  |  |  |
| CC1(C)Oc2ccc(C#N)cc2C(N2CCCC2=O)C1O (centres unmarked) [Cromakalim, reference compound] | 6.41 |  | -35 Δ% | -28 Δ% | 49.7 |  |
| CC1(C)CN(c2cccc[n+]2[O-])c2cc([N+](=O)[O-])ccc2O1 [Example 1, 2-(3,4-dihydro-2,2-dimethyl-6-nitro-2H-1,4-benzoxazin-4-yl)pyridine N-oxide] | 8.00 | -16 Δ% |  |  | 50.4 | -25 Δ% |
| CC1(C)CN(c2cccc[n+]2[O-])c2cc(C#N)ccc2O1 [Example 2, 2-(6-cyano-3,4-dihydro-2,2-dimethyl-2H-1,4-benzoxazin-4-yl)pyridine N-oxide] | 6.62 |  | -40 Δ% | -20 Δ% | > 60 |  |

Continued, in another order:

| pIC50 [2] | SMILES | MBP: mean blood pressure-lowering effect (percent reduction) ([1]; 3 μg/kg i.v.) | MBP: mean blood pressure-lowering effect ([3]; 300 μg/kg p.o.) | MBP: mean blood pressure-lowering effect (percent reduction) ([1]; 10 μg/kg i.v.) | LD50 [4] [mg/kg] | MBP: mean blood pressure-lowering effect ([3]; 30 μg/kg p.o.) |
| --- | --- | --- | --- | --- | --- | --- |
| 7.15 | CC(=O)CN1CC(C)(C)Oc2ccc([N+](=O)[O-])cc21 [Example 38, 4-Acetonyl-3,4-dihydro-2,2-dimethyl-6-nitro-2H-1,4-benzoxazine] |  |  | -23 Δ% |  |  |
| 7.70 | CN(C)C(=O)CN1CC(C)(C)Oc2ccc([N+](=O)[O-])cc21 [Example 56, 2-(3,4-dihydro-2,2-dimethyl-6-nitro-2H-1,4-benzoxazin-4-yl)-N,N-dimethylacetamide] | -11 Δ% |  |  |  |  |
| 8.00 | CC1(C)CN(C2=CCCC2=O)c2cc([N+](=O)[O-])ccc2O1 [Example 70, 3,4-Dihydro-2,21-dimethyl-6-nitro-4-(5-oxo-1-cyclopenten-1-yl) -2H-1,4-benzoxazine] |  |  | -9 Δ% |  |  |
